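Cells were grown in 96-well plates and exposed to each compound for 48 hours at five concentrations; endpoints were interpolated linearly between bracketing concentrations, or set to the highest concentration if not reached. TGI denotes the concentration required for complete inhibition of growth.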
Tests used:
Assay in all cases: inhibition of tumour cell growth, NCI panel, 48 h
786-0 renal = system: 786-0 renal
U251 CNS = system: U251 CNS
MALME-3M melanoma = system: MALME-3M melanoma
SNB-19 CNS = system: SNB-19 CNS
HOP-92 NSCLC = system: HOP-92 NSCLC
OVCAR-3 ovarian = system: OVCAR-3 ovarian
ACHN renal = system: ACHN renal
CCRF-CEM leukemia = system: CCRF-CEM leukemia
RXF 393 renal = system: RXF 393 renal
HT29 colon = system: HT29 colon
SK-MEL-28 melanoma = system: SK-MEL-28 melanoma
K-562 leukemia = system: K-562 leukemia
MDA-MB-231 breast = system: MDA-MB-231 breast
HCT-116 colon = system: HCT-116 colon
NCI-H226 lung = system: NCI-H226 lung
IGROV1 ovarian = system: IGROV1 ovarian
NCI-H460 lung = system: NCI-H460 lung
RPMI-8226 leukemia = system: RPMI-8226 leukemia
OVCAR-5 ovarian = system: OVCAR-5 ovarian

N#Cc1cccc(C2ON=C(c3ccc([N+](=O)[O-])cc3)N2C23CC4CC(CC(C4)C2)C3)c1 (stereo not drawn)
TGI (786-0 renal): > 100 µM
TGI (U251 CNS): > 100 µM
TGI (MALME-3M melanoma): > 100 µM
TGI (SNB-19 CNS): > 100 µM
TGI (HOP-92 NSCLC): > 100 µM
TGI (OVCAR-3 ovarian): > 100 µM
TGI (ACHN renal): > 100 µM
TGI (CCRF-CEM leukemia): > 100 µM
TGI (RXF 393 renal): > 100 µM
TGI (HT29 colon): > 100 µM
TGI (SK-MEL-28 melanoma): > 100 µM
TGI (K-562 leukemia): > 100 µM
TGI (MDA-MB-231 breast): > 100 µM
TGI (HCT-116 colon): > 100 µM
TGI (NCI-H226 lung): > 100 µM
TGI (IGROV1 ovarian): > 100 µM
TGI (NCI-H460 lung): > 100 µM
TGI (RPMI-8226 leukemia): > 100 µM
TGI (OVCAR-5 ovarian): 31 µM

CC(=O)Oc1ccc(N2C(=O)C3c4[nH]c5ccccc5c4C4CCC(C(C)(C)C)CC4C3C2=O)cc1 (stereo not drawn)
TGI (786-0 renal): 4.31 µM
TGI (U251 CNS): 11.1 µM
TGI (MALME-3M melanoma): 19.4 µM
TGI (SNB-19 CNS): 9.84 µM
TGI (HOP-92 NSCLC): 7.84 µM
TGI (OVCAR-3 ovarian): 7.07 µM
TGI (ACHN renal): 12.2 µM
TGI (CCRF-CEM leukemia): 13.2 µM
TGI (RXF 393 renal): 5.64 µM
TGI (HT29 colon): 9.38 µM
TGI (SK-MEL-28 melanoma): 14.9 µM
TGI (K-562 leukemia): 10.9 µM
TGI (MDA-MB-231 breast): 4.63 µM
TGI (HCT-116 colon): 4.93 µM
TGI (NCI-H226 lung): 26.1 µM
TGI (IGROV1 ovarian): 19.9 µM
TGI (NCI-H460 lung): 5.83 µM
TGI (RPMI-8226 leukemia): > 100 µM
TGI (OVCAR-5 ovarian): 14.6 µM

CC(NC1=CC(=O)c2ncccc2C1=O)C(O)c1ccccc1 (stereo not drawn)
TGI (786-0 renal): 26.2 µM
TGI (U251 CNS): 14.3 µM
TGI (MALME-3M melanoma): 4.97 µM
TGI (SNB-19 CNS): 20 µM
TGI (HOP-92 NSCLC): 27.9 µM
TGI (OVCAR-3 ovarian): 16.3 µM
TGI (ACHN renal): 43.7 µM
TGI (CCRF-CEM leukemia): > 100 µM
TGI (RXF 393 renal): 22.2 µM
TGI (HT29 colon): 28.3 µM
TGI (SK-MEL-28 melanoma): 10.9 µM
TGI (K-562 leukemia): 13.2 µM
TGI (MDA-MB-231 breast): 6.94 µM
TGI (HCT-116 colon): 15.2 µM
TGI (NCI-H226 lung): 20.8 µM
TGI (IGROV1 ovarian): 16.4 µM
TGI (NCI-H460 lung): 3.22 µM
TGI (RPMI-8226 leukemia): 53.9 µM
TGI (OVCAR-5 ovarian): 29.3 µM

Cc1ccc(/C=C2\CN(C)CC3C(c4ccc(C)cc4)=C(C#N)C(=O)NC23)cc1 (stereo not drawn)
TGI (786-0 renal): > 50 µM
TGI (U251 CNS): > 50 µM
TGI (MALME-3M melanoma): > 50 µM
TGI (SNB-19 CNS): > 50 µM
TGI (HOP-92 NSCLC): > 50 µM
TGI (OVCAR-3 ovarian): > 50 µM
TGI (ACHN renal): > 50 µM
TGI (CCRF-CEM leukemia): > 50 µM
TGI (RXF 393 renal): > 50 µM
TGI (HT29 colon): > 50 µM
TGI (SK-MEL-28 melanoma): > 50 µM
TGI (K-562 leukemia): > 50 µM
TGI (MDA-MB-231 breast): > 50 µM
TGI (HCT-116 colon): > 50 µM
TGI (NCI-H226 lung): > 50 µM
TGI (IGROV1 ovarian): > 50 µM
TGI (NCI-H460 lung): > 50 µM
TGI (RPMI-8226 leukemia): > 50 µM
TGI (OVCAR-5 ovarian): > 50 µM

COC(=O)c1ccc2c(c1)CC1(C2)Cc2cc3c(c(C(=O)OC)c2C1)CCCC3 (stereo not drawn)
TGI (786-0 renal): > 100 µM
TGI (U251 CNS): > 100 µM
TGI (MALME-3M melanoma): > 100 µM
TGI (HOP-92 NSCLC): > 100 µM
TGI (OVCAR-3 ovarian): > 100 µM
TGI (ACHN renal): > 100 µM
TGI (CCRF-CEM leukemia): > 100 µM
TGI (RXF 393 renal): > 100 µM
TGI (HT29 colon): > 100 µM
TGI (SK-MEL-28 melanoma): > 100 µM
TGI (K-562 leukemia): > 100 µM
TGI (MDA-MB-231 breast): > 100 µM
TGI (HCT-116 colon): > 100 µM
TGI (NCI-H226 lung): > 100 µM
TGI (IGROV1 ovarian): > 100 µM
TGI (NCI-H460 lung): > 100 µM
TGI (RPMI-8226 leukemia): > 100 µM
TGI (OVCAR-5 ovarian): > 100 µM

CSC(SC)=C1C(=O)NN=C1C
TGI (786-0 renal): > 100 µM
TGI (U251 CNS): > 100 µM
TGI (MALME-3M melanoma): > 100 µM
TGI (SNB-19 CNS): > 100 µM
TGI (HOP-92 NSCLC): > 100 µM
TGI (OVCAR-3 ovarian): > 100 µM
TGI (ACHN renal): > 100 µM
TGI (CCRF-CEM leukemia): > 100 µM
TGI (RXF 393 renal): > 100 µM
TGI (HT29 colon): > 100 µM
TGI (SK-MEL-28 melanoma): > 100 µM
TGI (K-562 leukemia): > 100 µM
TGI (MDA-MB-231 breast): > 100 µM
TGI (HCT-116 colon): > 100 µM
TGI (NCI-H226 lung): > 100 µM
TGI (IGROV1 ovarian): > 100 µM
TGI (NCI-H460 lung): > 100 µM
TGI (RPMI-8226 leukemia): > 100 µM
TGI (OVCAR-5 ovarian): > 100 µM
